# Where two headings read alike, the source gives them in different places.
# Experiments:
# human Ins-G cells [1] = assay type: cell-based
# Method: The sensitivity of dissociated human Ins-G cells to DMSO without cryopreservation (CP) was investigated. […] Temperatures ranging from 0° C. to 37° C. were investigated. Regardless, cell viability was practically indistinguishable from control cells not exposed to DMSO (FIG. 1A, column #1).
# In prior studies with a macro-encapsulation device, we loaded cells into devices immediately prior to transplantation. Thus, until now we have not exposed encapsulated cells to CPA, yet the ability to freeze preloaded devices would ensure reproducibility between experiments and among users. The process of loading cells into the device requires approximately 20 min; beginning when cells are drawn up into a Hamilton syringe and slowly dispensed into the device, and ending when the syringe has been removed from the device port and the port has been sealed. We hypothesized therefore, that cells must withstand pre-freeze exposure to CPA for 20 minutes in order to be successfully cryopreserved in devices. […]
# (§1) Cells cultured as monolayers were dissociated with Accutase, pelleted, and resuspended with either normal culture media (CM) as a positive control for cell viability or with the Freeze Medium (FM) containing 10% DMSO. […] Following incubation time, cells were allowed to reattach to tissue culture plates for 24 hours and then assessed for attachment and viability. […]
# human Ins-G cells [2] = experiment: Freezing dissociated Ins-G cells after pre-freeze incubation with DMSO; assay type: cell-based
# Method: The effects of preincubation with DMSO on freeze/thaw viability were investigated. Freezing dissociated cells pre-exposed to Freeze Media containing 10% DMSO (FIG. 1B) also had no effect on cryosurvival, which per se was exceptionally good (up to 77-79% to control). In order to verify requirement for cryoprotective agents (CPA) in freezing, a sample was frozen in culture media (no DMSO). As expected, survival was very poor (11% in comparison to the positive control). […] Without being bound to theory, a possible explanation is that cell mortality resulted from slow (suboptimal) freezing injury, when cells are frozen at the rate substantially slower than the equilibrium “Mazur's rate” when the cells are just in equilibrium with freezing outer milieu. The suboptimal rates in the inverted U curve usually contributed to the effects of highly concentrated solutes rather than immediate cell destruction and fast necrosis associated with the supra-optimal (fast freezing, according to the 2-factor hypothesis developed by Mazur (Mazur et al. (1972) Experimental Cell Res., 71:345-349; Mazur et al. (2008) Biol Reprod, 78:2-12). The cell membrane rupture and other colligative osmotic damage due to excessive shrinkage and swelling usually manifest quickly as the loss of selective permeability properties so the cells become permeable to large particle dyes such Trypan Blue, soon after the treatment. The osmotic damage usually decreases with the temperature and step-wise addition and dilution (which, in fact, exposes the cells to CPA longer than an abrupt one-step addition or dilution). In contrast, a long exposure to a CPA or/and to very concentrated solutions of the cryoprotectant can manifest later in the form of, e.g., death due to specific chemical toxicity, particularly on membrane and epigenetic level as it may affect protein folding and membrane lipid bilayers, as it is shown for some types of cells (see, for example (Katkov II et al. (2006) Cryobiology, 53:194-205) for references. In contrast to osmotic damage, chemical toxicity usually exacerbates at longer exposure at higher temperature, and the prevalence of one mode vs. another can be easily differentiate by treating cells with higher temperatures and/or for longer exposure to the CPA (Katkov II (2011) Cryobiology, 62:242-4; Katkov II et al. (1998) Cryobiology, 37:325-38; Katkov II et al. (2007) Cryo Letters, 28:409-27).
# as §1
# [3] = test system: islet like cell clusters (ICCs) of human Ins-G cells; experiment: Freezing ICCs: pre-freeze DMSO exposure and centrifugation; assay type: cell-based
# Method: To more closely mimic the morphological structure of pancreatic islets, cells cultured as 3-dimensional ICCs were investigated. The first technical question was how to harvest clusters, whether by gentle (200 g×5 min) centrifugation or by settling by gravitational force (1 g). Here prefreeze exposure of the clusters to 10% DMSO at room temperature and +37° C. before freezing was investigated.
# Two negative controls were employed. First (sample 1 on FIG. 2) were non-frozen clusters but the cells were exposed to 10% of DMSO for 20 min at +37° C. and centrifuged (200 g×5 min) The second control (Column #2) were cells that were not exposed top DMSO and frozen w/o it, with the same other procedures that in the first control. […] Apparently, some clusters were lost because they had not settled to the bottom of the tube either due to sub-optimal time or length of column 15-mL tube (Katkov II et al. (1999) Cell Biochem Biophys, 31:231-45). Cell clusters, it was observed, are more sensitive than dissociated cells from monolayer cultures even before and freezing (viability after thawing for the re-attached cells was in range of 61-72%, which was substantially lower than in monolayers (Experiment 2, FIG. 2). Thus, natural sedimentation was used with an increased time and decreased column length by using 50-mL conical tubes instead for the next experiments. […]
# [4] = test system: islet like cell clusters (ICCs) of human Ins-G cells; assay type: cell-based; conditions: for viable yield: human
# Method: While the level of DMSO will gradually decrease during elution, the extreme point was tested and the same high level of DMSO was maintained for the longevity of the entire exposure.
# Increase of temperature of elution will shorten the time of elution but DMSO might cause increased toxicity at increased temperature. Driven by this dilemma, extreme treatments of post-thawed clusters were checked starting with immediate washing of DMSO, maintaining them for 20 min on 4° C. before washing, at 25° C. for 10 and 20 min and at +37° C. at 10 and 20 min (Experiment 3, FIG. 3A). […] There was one exception however, the cells incubated at room temperature for 20 minutes performed slightly poorer than the other treatments. […] This phenomenon was observed over a large number of experiments (N=6), but its basis is unclear. […] Further experiments would be needed to determine with certainty that RT is actually more detrimental than +37° C. or ice. The surviving cells retain insulin expressing capacity for all treatments (FIG. 3B).
# Ultimately, the ability to freeze cell clusters inside an encapsulation device may require that the cells survive the time required to remove CPA upon thawing. Normally, when (unencapsulated) cells are thawed, CPA is removed quickly, either by centrifugation or by extensive dilution into culture media. However, for a cell-filled device, CPA removal will be accomplished via diffusion of CPA out of device into a large volume of wash media, until equilibration is reached. We estimated that approximately 20 minutes will be required to reach equilibrium, during which time cells are exposed to CPA. We therefore first examined the effects of post-thaw exposure to CPA in unencapsulated ICCs. Because equilibrium is also temperature dependent, we exposed thawed ICCs to CPA at 25° C. or 37° C. As we can see from FIG. 3A, sample 1, a control which was not exposed to CPA or frozen, reattachment of ICCs to tissue culture plates is 48%, lower than reattachment of dissociated cells (FIG. 1, sample 1). […]
# [5] = test system: insulin-GFP transgene in human Ins-G ICCs; experiment: Insulin-GFP expression after freezing ICCs and post-thaw DMSO exposure; assay type: cell-based; conditions: frozen, post-thaw DMSO 20 minutes at 37° C.
# Excerpt: In addition to survival, it is important that ICCs retain insulin gene expression during these manipulations. Human Ins-G cells express endogenous insulin message in response to tamoxifen (which activates the transcription factor […] by promoting translocation from the cytoplasm to the nucleus). The cells were also engineered to express GFP from an insulin transgene. Therefore, GFP expression in response to tamoxifen is a surrogate for insulin expression. We examined GFP expression in control ICCs (not frozen, not exposed to DMSO) as well as in cells frozen and exposed to DMSO for 20 minutes at 37° C. (FIG. 3B).
# [6] = test system: islet like cell clusters (ICCs) of human Ins-G cells; experiment: ICCs loaded or frozen in TheraCyte encapsulation device; assay type: cell-based; conditions: frozen in TheraCyte device in 10% DMSO freezing medium
# Method: Observing that the clusters can be exposed to DMSO both before freezing and after thawing when the cells were frozen in cryovials, cells were then frozen in the TheraCyte™ device (FIGS. 4A-C). Cells were exposed to DMSO during loading into the device. The port was then trimmed so that the device could fit a 1.5 mL cryovial which also contained 10-% DMSO freezing medium and froze them. After the vial was thawed, DMSO was eluted by placing the device in gently swirling medium solution (using magnetic stir bar). Without being limited by theory, this treatment may be sufficient to wash out the majority of DMSO before transplantation. Moreover this procedure mimics slow elution if the device is transplanted immediately after thawing, as a low concentration of DMSO is presumed to be non-toxic even for small animals. […] Barely 1/10 of loaded cells survived the whole procedure (including cutting device in pieces and placing into the dish, washing that out in 48 hrs, etc. (Experiment 4, FIG. 5). There can be several explanations for the cell loss, such as following.
# We next addressed the effects of freezing ICCs inside the encapsulation device. As a control for freezing, ICCs resuspended in FM were loaded into devices which were sealed and then immediately opened and cells removed. Cell attachment following release from device averaged 64% and of the attached cells, 59% were viable. […]
# hESCs = experiment: Exposure of dissociated hESCs to cryoprotective agent; assay type: cell-based, human; conditions: 10% DMSO 10 or 30 min, 4° C. or 37° C., no freezing
# Method: hESCs are cultured as monolayers and are dissociated with Accutase, pelleted, and resuspended with either normal culture media (CM) as a positive control for cell viability or with the Freeze Medium (FM) containing 10% DMSO. Cells are either plated immediately in CM or incubated in FM for up to 30 minutes. Following incubation time, cells are allowed to reattach to tissue culture plates for 24 hours and then assessed for attachment and viability. DMSO concentration, freezing time, and freezing temperature, for example, may be varied to obtain best results for a given culture. […] As a result, the Viable Yield (the product of Attachment and Viability) is also similar among the 4 incubation conditions. Thus, exposure to DMSO without freezing produces a minimal effect on survival of dissociated cells monolayer cultures.
# [7] = pre-freeze 10% DMSO 10 or 30 min, +4° C. or +37° C.
smiles,measurement,setting,value
"C[S+](C)[O-] [DMSO, dimethyl sulfoxide]",tolerance of exposure to 10% DMSO,human Ins-G cells [1],well tolerated
same,Viable Yield (product of Attachment and Viability),"human Ins-G cells [1]; human, 10 %",63-73%
same,cryosurvival relative to control,human Ins-G cells [2]; frozen in Freeze Media with 10% DMSO after pre-exposure,77-79%
same,Attachment efficiency after freezing,human Ins-G cells [2]; [7],73-77%
same,Viable Yield after freezing,human Ins-G cells [2]; [7],63-73%
same,viability of re-attached cells after freezing,human Ins-G cells [2]; [7],86-92%
same,viability after thawing of re-attached cells,[3]; ICCs frozen after pre-freeze 10% DMSO exposure,61-72%
same,viable yield,"[3]; clusters exposed to 10% DMSO at +37° C. for 20 min, centrifuged 200 g×5 min",31%
same,tolerance of post-thaw exposure to DMSO,[4],well tolerated
same,viable yield,[4],35-38%
same,viable yield,[4]; 20 min,21%
same,GFP expression versus control ICCs,[5],no significant difference
same,fraction of loaded cells surviving the whole procedure,[6],1/10
same,survival,hESCs,≥ 80%

# Source: patent US20150320836A1, “CRYOPRESERVATION OF CELLS INSIDE A MACRO-ENCAPSULATION DEVICE” (The Regents of the University of California, priority 2012, published 2015)
